In PubChem BioAssay AID330 (DTP/NCI, 2004):
Several values for one entry are separate records, joined by “and”; a condition that tells them apart may be missing. Identical values can stand only once. Inconclusive results and toxic doses are left out.

Tested on: P388 leukemia ip, CD2F1 mice, survival T/C
Experiment: NCI In Vivo Anticancer Drug Screen. Data for tumor model P388 Leukemia (intraperitoneal) in CD2F1 (CDF1) mice
Settings: endpoint: median survival time, higher = longer survival
Method in brief: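 Mice carrying the transplanted tumor received test compound or vehicle. Survival was recorded in each group, and the value is the treated-group measurement divided by that of the vehicle-treated control group.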

[1] = dose: 50.0 mg/kg/injection, schedule: Q01DX005 (ip), vehicle: saline with Tween-80
[2] = dose: 100.0 mg/kg/injection, schedule: Q01DX005 (ip), vehicle: saline with Tween-80
[3] = dose: 200.0 mg/kg/injection, schedule: Q01DX005 (ip), vehicle: saline with Tween-80
[4] = dose: 50.0 mg/kg/injection, schedule: Q01DX009 (ip), vehicle: saline with Tween-80
[5] = dose: 100.0 mg/kg/injection, schedule: Q01DX009 (ip), vehicle: saline with Tween-80
[6] = dose: 100.0 mg/kg/injection, schedule: Q01DX009 (ip), vehicle: Klucel (hydroxypropylcellulose) (HPC)
[7] = dose: 60.0 mg/kg/injection, schedule: Q01DX005 (ip), vehicle: Klucel (hydroxypropylcellulose) (HPC)
[8] = dose: 120.0 mg/kg/injection, schedule: Q01DX005 (ip), vehicle: Klucel (hydroxypropylcellulose) (HPC)
[9] = dose: 240.0 mg/kg/injection, schedule: Q01DX005 (ip), vehicle: Klucel (hydroxypropylcellulose) (HPC)

Clc1cnc2n[se]nc2c1
T/C (dose: 25.0 mg/kg/injection, schedule: Q04DX002 (ip), vehicle: saline): 106 % of control | T/C (dose: 50.0 mg/kg/injection, schedule: Q04DX002 (ip), vehicle: saline): 116 % of control | T/C (dose: 100.0 mg/kg/injection, schedule: Q04DX002 (ip), vehicle: saline): 105 % of control and 114 % of control

COC(=O)/C=C/CS(C)(=O)=O
T/C [1]: 105 % of control | T/C [2]: 101 % of control | T/C [3]: 99 % of control

COCCCNC1=C(C#N)C(=O)NC(c2cccs2)S1 (configuration not stated)
T/C [4]: 117 % of control | T/C [5]: 119 % of control

Nc1cccc2ccccc12
T/C (dose: 100.0 mg/kg/injection, schedule: Q04DX003 (ip), vehicle: saline with Tween-80): 94 % of control

C=C1C(=O)OC2CC1CCC1(C)OC1CCC(C)=CCCC2(C)O (configuration not stated)
T/C (dose: 7.5 mg/kg/injection, schedule: Q01DX009 (ip), vehicle: Klucel (hydroxypropylcellulose) (HPC)): 100 % of control and 101 % of control | T/C (dose: 15.0 mg/kg/injection, schedule: Q01DX009 (ip), vehicle: Klucel (hydroxypropylcellulose) (HPC)): 107 % of control and 119 % of control | T/C (dose: 30.0 mg/kg/injection, schedule: Q01DX009 (ip), vehicle: Klucel (hydroxypropylcellulose) (HPC)): 107 % of control and 108 % of control | T/C (dose: 60.0 mg/kg/injection, schedule: Q01DX009 (ip), vehicle: Klucel (hydroxypropylcellulose) (HPC)): 108 % of control

c1ccc(CSC2=NCCCC2)cc1
T/C (dose: 100.0 mg/kg/injection, schedule: Q04DX002 (ip), vehicle: saline with Tween-80): 98 % of control | T/C (dose: 200.0 mg/kg/injection, schedule: Q04DX002 (ip), vehicle: saline with Tween-80): 105 % of control | T/C (dose: 400.0 mg/kg/injection, schedule: Q04DX002 (ip), vehicle: saline with Tween-80): 100 % of control

Cc1ccc(S(=O)(=O)OC[C@@H]2CCCC[C@H]2COS(=O)(=O)c2ccc(C)cc2)cc1
T/C [6]: 98 % of control | T/C (dose: 200.0 mg/kg/injection, schedule: Q01DX009 (ip), vehicle: Klucel (hydroxypropylcellulose) (HPC)): 98 % of control | T/C (dose: 400.0 mg/kg/injection, schedule: Q01DX009 (ip), vehicle: Klucel (hydroxypropylcellulose) (HPC)): 98 % of control

CCCn1cnc2c(=S)nc[nH]c21
T/C (dose: 25.0 mg/kg/injection, schedule: Q01DX009 (ip), vehicle: saline with Tween-80): 86 % of control | T/C [4]: 90 % of control | T/C [5]: 109 % of control

COC(=O)CC1(C(=O)OC)c2ccc3ccccc3c2N(C#N)C1CCCBr (configuration not stated)
T/C (dose: 100.0 mg/kg/injection, schedule: Q01DX001 (ip), vehicle: saline): 109 % of control | T/C (dose: 200.0 mg/kg/injection, schedule: Q01DX001 (ip), vehicle: saline): 107 % of control | T/C (dose: 400.0 mg/kg/injection, schedule: Q01DX001 (ip), vehicle: saline): 100 % of control

CCC1CC2CN(CCc3c([nH]c4ccccc34)C(C(=O)OC)(c3cc4c(cc3OC)N(C)C3C(O)(C(=O)OC)C(OC(C)=O)C5(CC)C=CCN6CCC43C65)C2)C1 (configuration not stated)
T/C (dose: 0.05 mg/kg/injection, schedule: Q01DX009 (ip), vehicle: Klucel (hydroxypropylcellulose) (HPC)): 123 % of control | T/C (dose: 0.06 mg/kg/injection, schedule: Q01DX009 (ip), vehicle: water): 124 % of control | T/C (dose: 0.25 mg/kg/injection, schedule: Q04DX003 (ip), vehicle: water): 150 % of control | T/C (dose: 0.4 mg/kg/injection, schedule: Q01DX009 (ip), vehicle: Klucel (hydroxypropylcellulose) (HPC)): 169 % of control | T/C (dose: 0.5 mg/kg/injection, schedule: Q04DX003 (ip), vehicle: water): 160 % of control | T/C (dose: 0.8 mg/kg/injection, schedule: Q01DX009 (ip), vehicle: Klucel (hydroxypropylcellulose) (HPC)): 169 % of control | T/C (dose: 1.0 mg/kg/injection, schedule: Q04DX003 (ip), vehicle: water): 223 % of control | T/C (dose: 2.0 mg/kg/injection, schedule: Q04DX003 (ip), vehicle: water): 232 % of control | T/C (dose: 4.0 mg/kg/injection, schedule: Q01DX009 (ip), vehicle: water): 115 % of control

O=C1CSC(=Nc2ccccc2F)N1c1ccccc1F
T/C (dose: 50.0 mg/kg/injection, schedule: Q01DX009 (ip), vehicle: Klucel (hydroxypropylcellulose) (HPC)): 110 % of control | T/C [6]: 107 % of control

Cc1ccc(/C=C/C(=O)/C=C/c2ccc(C)o2)o1
T/C (dose: 25.0 mg/kg/injection, schedule: Q01DX005 (ip), vehicle: DMSO): 107 % of control | T/C (dose: 50.0 mg/kg/injection, schedule: Q01DX005 (ip), vehicle: DMSO): 104 % of control | T/C [1]: 99 % of control | T/C (dose: 100.0 mg/kg/injection, schedule: Q01DX005 (ip), vehicle: DMSO): 104 % of control | T/C [2]: 96 % of control | T/C (dose: 200.0 mg/kg/injection, schedule: Q01DX005 (ip), vehicle: DMSO): 97 % of control | T/C [3]: 100 % of control | T/C (dose: 400.0 mg/kg/injection, schedule: Q01DX005 (ip), vehicle: DMSO): 101 % of control

COc1ccc(-c2cc(=O)c3c(O)cc(O)cc3o2)cc1Oc1ccc(-c2cc(=O)c3c(O)cc(O)cc3o2)cc1
T/C [7]: 96 % of control | T/C [8]: 96 % of control | T/C [9]: 88 % of control

C1CN(CC2CCC(CN3CCOCC3)O2)CCO1 (configuration not stated)
T/C (dose: 3.12 mg/kg/injection, schedule: Q01DX005 (ip), vehicle: Klucel (hydroxypropylcellulose) (HPC)): 96 % of control | T/C (dose: 6.25 mg/kg/injection, schedule: Q01DX005 (ip), vehicle: Klucel (hydroxypropylcellulose) (HPC)): 97 % of control | T/C (dose: 12.5 mg/kg/injection, schedule: Q01DX005 (ip), vehicle: Klucel (hydroxypropylcellulose) (HPC)): 100 % of control | T/C (dose: 25.0 mg/kg/injection, schedule: Q01DX005 (ip), vehicle: Klucel (hydroxypropylcellulose) (HPC)): 114 % of control | T/C (dose: 50.0 mg/kg/injection, schedule: Q01DX005 (ip), vehicle: Klucel (hydroxypropylcellulose) (HPC)): 96 % of control

COc1cccc2c1N(COC(C)=O)C(=O)C1C=CC(C)(C)OC21 (configuration not stated)
T/C (dose: 8.0 mg/kg/injection, schedule: Q01DX009 (ip), vehicle: Klucel (hydroxypropylcellulose) (HPC)): 97 % of control | T/C (dose: 16.0 mg/kg/injection, schedule: Q01DX009 (ip), vehicle: Klucel (hydroxypropylcellulose) (HPC)): 95 % of control | T/C (dose: 32.0 mg/kg/injection, schedule: Q01DX009 (ip), vehicle: Klucel (hydroxypropylcellulose) (HPC)): 97 % of control | T/C (dose: 64.0 mg/kg/injection, schedule: Q01DX009 (ip), vehicle: Klucel (hydroxypropylcellulose) (HPC)): 92 % of control

C[S+](C)CC[N+](C)(C)C
T/C (dose: 12.5 mg/kg/injection, schedule: Q01DX009 (ip), vehicle: water): 104 % of control | T/C (dose: 25.0 mg/kg/injection, schedule: Q01DX009 (ip), vehicle: water): 108 % of control | T/C (dose: 50.0 mg/kg/injection, schedule: Q01DX009 (ip), vehicle: water): 110 % of control

Nc1nc(N)c2cc(S(=O)(=O)c3ccc(Cl)cc3)ccc2n1
T/C [4]: 100 % of control | T/C [5]: 98 % of control | T/C (dose: 200.0 mg/kg/injection, schedule: Q01DX009 (ip), vehicle: saline with Tween-80): 97 % of control

[CH3][Sn]([CH3])([CH3])[O][N+](=O)[O-]
T/C (dose: 0.37 mg/kg/injection, schedule: Q01DX009 (ip), vehicle: saline): 111 % of control | T/C (dose: 0.75 mg/kg/injection, schedule: Q01DX009 (ip), vehicle: saline): 91 % of control

O=[N+]([O-])c1ccc(Nc2cn[nH]n2)cc1
T/C [7]: 100 % of control | T/C [8]: 102 % of control | T/C [9]: 99 % of control

Cc1ncc(C(=O)c2cc(Cl)ccc2O)cn1
T/C (dose: 100.0 mg/kg/injection, schedule: Q04DX003 (ip), vehicle: saline): 100 % of control | T/C (dose: 200.0 mg/kg/injection, schedule: Q04DX003 (ip), vehicle: saline): 110 % of control | T/C (dose: 400.0 mg/kg/injection, schedule: Q04DX003 (ip), vehicle: saline): 100 % of control

CC(=O)C1C(C)C(C(C)=O)N2C1SC1CCOC12C (configuration not stated)
T/C (dose: 10.0 mg/kg/injection, schedule: Q01DX001 (ip), vehicle: suspension in saline): 106 % of control | T/C (dose: 20.0 mg/kg/injection, schedule: Q01DX001 (ip), vehicle: suspension in saline): 105 % of control | T/C (dose: 40.0 mg/kg/injection, schedule: Q01DX001 (ip), vehicle: suspension in saline): 101 % of control | T/C (dose: 80.0 mg/kg/injection, schedule: Q01DX001 (ip), vehicle: suspension in saline): 102 % of control

O=C1CSC(c2cccc(O)c2O)N1c1nncs1 (configuration not stated)
T/C (dose: 60.0 mg/kg/injection, schedule: Q01DX005 (ip), vehicle: saline with Tween-80): 111 % of control | T/C (dose: 120.0 mg/kg/injection, schedule: Q01DX005 (ip), vehicle: saline with Tween-80): 96 % of control | T/C (dose: 240.0 mg/kg/injection, schedule: Q01DX005 (ip), vehicle: saline with Tween-80): 96 % of control
